By EC50 is commonly meant the concentration giving half of the maximal effect.

Each structure is given as a SMILES string. Residue numbers refer to the chain shown, from its start. Read-outs that look alike come from different tables or passages of the source.

The results in this text go back to paper PMC4770772 (Oncotarget, 2015).

Data set [1] concerns the target T1, ABCG2 (Homo sapiens, UniProt Q9UNQ0, R482T).
T1 construct: full-length ABCG2 in HEK293 cells
T1 sequence (Q9UNQ0 1-655 R482T): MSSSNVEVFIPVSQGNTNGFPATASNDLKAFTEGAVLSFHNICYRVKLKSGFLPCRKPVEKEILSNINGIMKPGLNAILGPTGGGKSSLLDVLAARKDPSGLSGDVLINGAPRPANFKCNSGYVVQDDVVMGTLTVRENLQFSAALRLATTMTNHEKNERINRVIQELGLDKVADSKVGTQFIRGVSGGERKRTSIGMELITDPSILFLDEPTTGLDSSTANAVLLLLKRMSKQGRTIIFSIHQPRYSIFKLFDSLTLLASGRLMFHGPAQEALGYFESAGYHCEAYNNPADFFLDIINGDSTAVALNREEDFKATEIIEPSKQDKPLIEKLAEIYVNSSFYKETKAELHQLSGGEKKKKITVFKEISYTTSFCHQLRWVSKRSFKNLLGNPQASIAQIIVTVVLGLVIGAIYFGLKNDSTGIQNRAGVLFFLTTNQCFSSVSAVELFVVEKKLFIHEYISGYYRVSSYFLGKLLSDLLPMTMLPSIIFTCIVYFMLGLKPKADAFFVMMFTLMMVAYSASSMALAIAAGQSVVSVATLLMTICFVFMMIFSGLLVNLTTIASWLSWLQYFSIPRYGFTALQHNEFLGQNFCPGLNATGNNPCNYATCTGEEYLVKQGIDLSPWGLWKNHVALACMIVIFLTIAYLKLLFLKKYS
In words: [3H]-mitoxantrone accumulation in HEK293/R482T cells at […]. The class given is cell-based.

The target in data set [2] is T2, ABCG2 (Homo sapiens, UniProt Q9UNQ0, R482G).
T2 construct: full-length ABCG2 in HEK293 cells
T2 sequence (Q9UNQ0 1-655 R482G): T1 sequence (Q9UNQ0 1-655 R482T) with T482G
In words: [3H]-mitoxantrone accumulation in HEK293/R482G cells at […]. The class given is cell-based.

For data set [3], the target named is T3, ABCG2 (Homo sapiens, UniProt Q9UNQ0).
T3 construct: membrane vesicles of High Five insect cells overexpressing ABCG2
T3 sequence (Q9UNQ0 1-655): T1 sequence (Q9UNQ0 1-655 R482T) with T482R
In words: vanadate-sensitive ATPase stimulation in membrane vesicles; also [3H]-mitoxantrone accumulation/efflux inhibition in HEK293/R482 cells. It is filed as biochemical.

Data set [4] deals with T3, ABCG2. It is filed as biochemical. To be noted: membrane vesicles.
Data set [5] has as its target T3, ABCG2. Description: vanadate-sensitive ATPase stimulation in membrane vesicles; [3H]-MX efflux from ABCG2-transfected cells. The class given is biochemical.

Turning to `COc1cc(NC(=O)c2ccc(-c3ccc(Cl)cc3)o2)cc(OC)c1` [A-803467], the “[3H]-mitoxantrone accumulation in HEK293/R482T cells at 7.5 μM” value at ABCG2 [1] is “significantly increased intracellular accumulation of [^3H]-MX in ABCG2-expressing cells HEK293/R482, HEK293/R482G and HEK293/R482T cells”. Further, the “[3H]-mitoxantrone accumulation in HEK293/R482G cells at 7.5 μM” value at ABCG2 [2] was “significantly increased intracellular accumulation of [^3H]-MX in ABCG2-expressing cells HEK293/R482, HEK293/R482G and HEK293/R482T cells”. The EC50 at ABCG2 [3] amounted to 718 nM.

Take `CC[C@@]1(O)C(=O)OCc2c1cc1n(c2=O)Cc2cc3c(CN(C)C)c(O)ccc3nc2-1` [topotecan]: the EC50 on ABCG2 [4] worked out at 2600 nM. For `O=C1c2c(O)ccc(O)c2C(=O)c2c(NCCNCCO)ccc(NCCNCCO)c21` [mitoxantrone], it took 2200 nM to reach a half-maximal effect at ABCG2 [5] (EC50).
